Source: patent US6355799B1, “Substituted benzene compounds, process for their preparation, and herbicidal and defoliant compositions containing them” (ISK Americas Incorporated, priority 1997, dated 2002)

Legend:
Format in all cases: in vivo
[1] = test system: redroot pigweed (Amaranthus retroflexus, AMARE); test: Pre-emerge test, greenhouse herbicide activity screening; settings: rated 14 days after application, 0 = no damage, 100 = complete death
Outline: (§1)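 Rating: 0–100 visual injury, 14 DAA. Application: acetone, 187 l/ha, 15–1000 g ai/ha, flat-fan track sprayer with nozzle 40–45 cm above soil or canopy. Post-emerge runs used 0.25% v/v surfactant on 2–3 leaf plants.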

[2] = test system: barnyardgrass (Echinochloa crus-galli, ECHCG); test: as above; settings: rated 14 days after application, 0 = no damage, 100 = complete death
Outline: (§2)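 Compounds in acetone were track-sprayed at 187 l/ha, 15–1000 g ai/ha, onto sandy loam pots. Pre-emerge seeds were sown one day before spraying, with surface watering afterwards. Post-emerge plants were at the 2–3 leaf stage and sprayed with 0.25% v/v non-ionic surfactant. Injury was rated 0–100 at 14 days.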

[3] = test system: common ragweed (Ambrosia artemisizfolia L., AMBEL); test: as above; settings: rated 14 days after application, 0 = no damage, 100 = complete death
Outline: as §2

[4] = test system: green foxtail (Setaria viridis, SETVI); test: as above; settings: rated 14 days after application, 0 = no damage, 100 = complete death
Outline: as §2

[5] = test system: ivyleaf morningglory (Ipomoea hederacea, IPOHE); test: as above; settings: rated 14 days after application, 0 = no damage, 100 = complete death
Outline: as §2

[6] = test system: johnsongrass (Sorghum halepense, SORHA); test: as above; settings: rated 14 days after application, 0 = no damage, 100 = complete death
Outline: as §2

[7] = test system: lambsquarters (Chenopodium album, CHEAL); test: as above; settings: rated 14 days after application, 0 = no damage, 100 = complete death
Outline: as §2

[8] = test system: large crabgrass (Digitaria sanguinalis, DIGSA); test: as above; settings: rated 14 days after application, 0 = no damage, 100 = complete death
Outline: as §2

[9] = test system: sicklepod (Cassia obtusifolia, CASOB); test: as above; settings: rated 14 days after application, 0 = no damage, 100 = complete death
Outline: as §2

[10] = test system: velvetleaf (Abutilon theophrasti, ABUTH); test: as above; settings: rated 14 days after application, 0 = no damage, 100 = complete death
Outline: as §2

[11] = test system: field corn (Zea mays L., var. Dekalb 535, CORN); test: Pre-emerge test, crop safety; settings: rated 14 days after application, 0 = no damage, 100 = complete death
Outline: as §1

[12] = test system: upland rice (Oryza sp., var. Tebonnet, RICE); test: Pre-emerge test, crop safety; settings: rated 14 days after application, 0 = no damage, 100 = complete death
Outline: as §1

[13] = test system: barnyardgrass (Echinochloa crus-galli, ECHCG); test: Post-emerge test, greenhouse herbicide activity screening; settings: post-emerge, 14 days after application, rating scale 0-100
Outline: (§3)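 Fourteen days after spraying, crop and weed injury was graded visually from 0, no effect, to 100, every plant dead. Test substances were dissolved in acetone and applied at 15–1000 g ai/ha with a flat-fan nozzle. Application was either pre-emergence, one day after sowing, or post-emergence at the 2–3 leaf stage.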

[14] = test system: common ragweed (Ambrosia artemisizfolia L., AMBEL); test: as above; settings: post-emerge, 14 days after application, rating scale 0-100
Outline: as §3

[15] = test system: green foxtail (Setaria viridis, SETVI); test: as above; settings: post-emerge, 14 days after application, rating scale 0-100
Outline: as §3

[16] = test system: ivyleaf morningglory (Ipomoea hederacea, IPOHE); test: as above; settings: post-emerge, 14 days after application, rating scale 0-100
Outline: as §3

[17] = test system: johnsongrass (Sorghum halepense, SORHA); test: as above; settings: post-emerge, 14 days after application, rating scale 0-100
Outline: as §3

[18] = test system: lambsquarters (Chenopodium album, CHEAL); test: as above; settings: post-emerge, 14 days after application, rating scale 0-100
Outline: as §3

[19] = test system: large crabgrass (Digitaria sanguinalis, DIGSA); test: as above; settings: post-emerge, 14 days after application, rating scale 0-100
Outline: as §3

[20] = test system: redroot pigweed (Amaranthus retroflexus, AMARE); test: as above; settings: post-emerge, 14 days after application, rating scale 0-100
Outline: as §3

[21] = test system: sicklepod (Cassia obtusifolia, CASOB); test: as above; settings: post-emerge, 14 days after application, rating scale 0-100
Outline: as §3

[22] = test system: velvetleaf (Abutilon theophrasti, ABUTH); test: as above; settings: post-emerge, 14 days after application, rating scale 0-100
Outline: as §3

[23] = test system: field corn (Zea mays L., var. Dekalb 535, CORN); test: Post-emerge test, crop safety; settings: post-emerge, 14 days after application, rating scale 0-100
Outline: as §2

[24] = test system: upland rice (Oryza sp., var. Tebonnet, RICE); test: Post-emerge test, crop safety; settings: post-emerge, 14 days after application, rating scale 0-100
Outline: as §2

COc1c(Cl)cc(F)c(-n2c(=O)cc(C(F)(F)F)n(C)c2=O)c1NC(=O)c1cccc(F)c1F [2-41]
50: Pre-emerge Herbicidal Activity, phytotoxicity rating (0-100), ECHCG ([2]; 63 g ai/ha) | Pre-emerge phytotoxicity rating (0-100), crop damage, RICE ([12]; 63 g ai/ha) | phytotoxicity rating AMBEL ([14]; 63 g ai/ha)
100: Pre-emerge Herbicidal Activity, phytotoxicity rating (0-100), AMARE ([1]; 63 g ai/ha) | Pre-emerge Herbicidal Activity, phytotoxicity rating (0-100), AMARE ([1]; 250 g ai/ha) | Pre-emerge Herbicidal Activity, phytotoxicity rating (0-100), ECHCG ([2]; 250 g ai/ha) | Pre-emerge Herbicidal Activity, phytotoxicity rating (0-100), AMBEL ([3]; 63 g ai/ha) | Pre-emerge Herbicidal Activity, phytotoxicity rating (0-100), AMBEL ([3]; 250 g ai/ha) | Pre-emerge Herbicidal Activity, phytotoxicity rating (0-100), SETVI ([4]; 250 g ai/ha) | Pre-emerge Herbicidal Activity, phytotoxicity rating (0-100), IPOHE ([5]; 250 g ai/ha) | Pre-emerge Herbicidal Activity, phytotoxicity rating (0-100), SORHA ([6]; 250 g ai/ha) | Pre-emerge Herbicidal Activity, phytotoxicity rating (0-100), CHEAL ([7]; 63 g ai/ha) | Pre-emerge Herbicidal Activity, phytotoxicity rating (0-100), CHEAL ([7]; 250 g ai/ha) | Pre-emerge Herbicidal Activity, phytotoxicity rating (0-100), DIGSA ([8]; 250 g ai/ha) | Pre-emerge Herbicidal Activity, phytotoxicity rating (0-100), CASOB ([9]; 250 g ai/ha) | Pre-emerge Herbicidal Activity, phytotoxicity rating (0-100), ABUTH ([10]; 63 g ai/ha) | Pre-emerge Herbicidal Activity, phytotoxicity rating (0-100), ABUTH ([10]; 250 g ai/ha) | phytotoxicity rating IPOHE ([16]; 63 g ai/ha) | phytotoxicity rating IPOHE ([16]; 250 g ai/ha) | phytotoxicity rating CHEAL ([18]; 250 g ai/ha) | phytotoxicity rating AMARE ([20]; 250 g ai/ha) | phytotoxicity rating ABUTH ([22]; 63 g ai/ha) | phytotoxicity rating ABUTH ([22]; 250 g ai/ha)
20: phytotoxicity rating SETVI ([15]; 63 g ai/ha) | phytotoxicity rating DIGSA ([19]; 250 g ai/ha)
90: Pre-emerge Herbicidal Activity, phytotoxicity rating (0-100), IPOHE ([5]; 63 g ai/ha) | Pre-emerge phytotoxicity rating (0-100), crop damage, RICE ([12]; 250 g ai/ha)
95: Pre-emerge Herbicidal Activity, phytotoxicity rating (0-100), SETVI ([4]; 63 g ai/ha) | Pre-emerge phytotoxicity rating (0-100), crop damage, CORN ([11]; 250 g ai/ha) | phytotoxicity rating AMBEL ([14]; 250 g ai/ha) | phytotoxicity rating CHEAL ([18]; 63 g ai/ha) | phytotoxicity rating AMARE ([20]; 63 g ai/ha) | phytotoxicity rating CASOB ([21]; 250 g ai/ha)
70: Pre-emerge Herbicidal Activity, phytotoxicity rating (0-100), DIGSA ([8]; 63 g ai/ha) | phytotoxicity rating SORHA ([17]; 250 g ai/ha) | phytotoxicity rating RICE ([24]; 250 g ai/ha)
80: Pre-emerge Herbicidal Activity, phytotoxicity rating (0-100), CASOB ([9]; 63 g ai/ha) | phytotoxicity rating CORN ([23]; 250 g ai/ha)
30: Pre-emerge Herbicidal Activity, phytotoxicity rating (0-100), SORHA ([6]; 63 g ai/ha) | phytotoxicity rating ECHCG ([13]; 250 g ai/ha) | phytotoxicity rating SETVI ([15]; 250 g ai/ha)
60: phytotoxicity rating CASOB ([21]; 63 g ai/ha)
0: phytotoxicity rating ECHCG ([13]; 63 g ai/ha) | phytotoxicity rating SORHA ([17]; 63 g ai/ha) | phytotoxicity rating DIGSA ([19]; 63 g ai/ha)
15: phytotoxicity rating CORN ([23]; 63 g ai/ha)
10: phytotoxicity rating RICE ([24]; 63 g ai/ha)
35: Pre-emerge phytotoxicity rating (0-100), crop damage, CORN ([11]; 63 g ai/ha)
